{"source": "paper PMC12311259", "about": "“Antifibrotic effects of specific targeting of the 5‐hydroxytryptamine 2B receptor (5‐HT2BR) in murine models and ex vivo models of scleroderma skin” (Arthritis & Rheumatology (Hoboken, N.j.), 2025)", "key": {"[1]": {"experiment": "Pharmacokinetic profile (no method given)"}, "Mouse 5-HT2BR": {"target": "T1, Mouse 5-HT2BR (Mus musculus, UniProt Q02152)", "T1 construct": "host or cells: CHO-K1", "T1 sequence (Q02152 whole entry)": "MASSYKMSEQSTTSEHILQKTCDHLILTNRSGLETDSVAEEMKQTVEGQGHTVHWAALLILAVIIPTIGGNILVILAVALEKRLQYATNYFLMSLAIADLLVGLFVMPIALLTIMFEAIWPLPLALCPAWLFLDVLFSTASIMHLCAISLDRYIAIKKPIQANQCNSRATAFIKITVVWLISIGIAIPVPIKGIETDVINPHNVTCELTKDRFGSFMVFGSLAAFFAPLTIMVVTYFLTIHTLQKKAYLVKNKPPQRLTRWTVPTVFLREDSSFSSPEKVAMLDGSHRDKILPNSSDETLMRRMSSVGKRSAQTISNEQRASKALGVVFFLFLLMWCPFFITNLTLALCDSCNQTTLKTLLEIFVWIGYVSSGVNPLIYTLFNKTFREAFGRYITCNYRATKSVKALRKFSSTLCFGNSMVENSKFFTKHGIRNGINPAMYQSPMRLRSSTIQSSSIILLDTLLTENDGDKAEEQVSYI", "experiment": "Calcium influx functionality assay (FLIPR) in CHO-K1 cells expressing mouse 5-HT2BR", "type": "cell-based", "conditions": "agonist 5 nM α-methylserotonin", "method": "The binding profile of AM1476 was evaluated for binding to human 5‐HT2AR, 5‐HT2BR, and 5‐HT2CR in radioligand binding assays using Chinese hamster ovary (CHO‐K1) cells overexpressing human receptors (in vitro assays 271650, 271700, and 271800; Eurofins Panlabs Discovery). AM1476 was evaluated at 0.1, 1, 10, 100, 1,000, and 10,000 nM (5‐HT2BR) or at 1, 10, 100, 1,000, and 10,000 nM (5‐HT2AR and 5‐HT2CR). Human 5‐HT2AR and 5‐HT2BR functionality was measured with homogeneous time‐resolved fluorescence quantification of IP1 accumulation in CHO‐K1 cells (in vitro assays 355250 and 355260). Compounds creating a ≥50% inhibition of 5‐HT (5 nM) induced fluorescence response specified receptor antagonist activity. 5‐HT2CR functionality was assessed with [35S] GTPγS for quantification of bound GTPγS. Compounds creating a ≥50% inhibition of 5‐HT (100 nM) induced [35S] GTPγS binding response specified receptor antagonist activity (in vitro assay 355200). AM1476 was evaluated at 0.1, 0.3, 1, 3, 10, 30, and 300 nM (5‐HT2BR) or 1, 10, 100, 1,000, and 10,000 nM (5‐HT2AR and 5‐HT2CR). […] Mouse 5‐HT2BR functionality was measured in a calcium influx assay (Charles River) in CHO‐KI cells expressing the mouse 5‐HT2BR using a calcium sensitive dye and a fluorescence imaging plate reader (FLIPRTETRA) instrument. AM1476 was evaluated at 0.3, 1, 3, 10, 30, 100, 300, and 1,000 nM. […]"}, "[2]": {"system": "cGvHD-induced skin fibrosis", "experiment": "Sclerodermatous cGvHD mouse model (B10.D2 to BALB/c), skin fibrosis incl. RNASeq and immunofluorescence of skin", "type": "in vivo", "method": "AM1476 was dissolved in sterile distilled water for the ex vivo and in vivo experiments. A concentration of 30 μM was applied for the ex vivo experiment. For the in vivo experiments, 1, 3, or 10 mg/kg was administered orally once or twice daily.\nThe B10.D2→BALB/c (H‐2d) minor histocompatibility antigen–mismatched model was performed as described.[9], [10] Briefly, female BALB/c (H‐2d) mice were purchased from Janvier. Male B10.D2 (H‐2d) mice were initially purchased from Jackson Laboratory. All mice were maintained in specific pathogen‐free conditions with sterile pellet food and water and a normal day–night cycle. For isolation of unfractionated bone marrow cells, tibial and femoral bones were prepared under sterile conditions. Phosphate buffered saline (PBS) was used to flush bone marrow cells from bone marrow cavities. Subsequently, bone marrow cells were filtered through 70‐μm nylon meshes (BD Biosciences), followed by erythrocyte hemolysis. The remaining bone marrow cells were kept on ice until transplantation. Transplantation of bone marrow cells and splenocytes was performed as follows: Recipient mice (BALB/c [H‐2d]) eight weeks of age received total body irradiation with 750 cGy. Six hours after irradiation, all BALB/c (H‐2d) recipients received bone marrow from either BALB/c (H‐2d) in a syngeneic transplantation manner or B10.D2 (H‐2d) in an allogeneic transplantation manner. For transplantation, 5 × 10[6] splenocytes and 2 × 10[6] bone marrow cells from donor mice were resuspended in 0.2 mL of PBS and injected via tail veins.[9], [10] To reflect the clinical situation with treatment initiation upon clinical signs of chronic graft‐versus‐host disease (cGvHD), treatment was started 21 days after bone marrow transplantation (BMT) and thus after the first clinically detectable manifestations of cGvHD in allogeneically transplanted mice. The outcome of treatment was analyzed seven weeks after transplantation. Eight mice per group were analyzed.\nMice were monitored clinically on a daily basis for behavior, activity, texture of the fur, weight, and consistency of the stool.[13] After the mice were killed, a gross macroscopic evaluation of the lungs and the skin was performed.\nRecipient mice were clinically monitored on a daily basis from the day of transplantation to the indicated days after transplantation to determine the incidence and severity of cutaneous cGvHD as well as mobility, diarrhea, and weight loss.[10], [14] The following scoring system for cutaneous cGvHD was used: healthy appearance = 0; skin lesions with alopecia <1 cm[2] in area = 1; skin lesions with alopecia 1 to 2 cm[2] in area = 2; and skin lesions with alopecia >2 cm[2] in area = 3.\nSkin samples were fixed in 4% formalin for six hours and embedded in paraffin. Five‐micrometer sections were cut and stained with hematoxylin and eosin (H&E). The dermal thickness was quantified on H&E‐stained sections using images captured with a light microscope (Nikon eclipse 80i) at 100‐fold magnification by manually measuring the distance between the epidermal‐dermal junction and the dermal‐subcutaneous fat junction at four sites per mouse.[15], [16] For lung samples, the whole left lung was fixed in 4% formalin for six hours and embedded in paraffin. Five‐micrometer sections were cut and stained with trichrome and sirius red. Histologic readouts were evaluation of the fibrotic area as the percentage of the total lung area in sirius red–stained sections (two sections per mouse) and quantification of pulmonary changes using the Ashcroft score (four sections per mouse).[17], [18]\nThe amount of collagen protein in skin and lung samples was determined by hydroxyproline assay.[19], [20] After digestion in 6 M HCl for three hours at 120°C, the pH of the samples was adjusted to a pH range of 6–7 with 6 M NaOH. Afterward, 0.06 M chloramine T was added to each sample and incubated for 20 minutes at room temperature."}, "[3]": {"conditions": "treatment from day 21 after BMT, vs vehicle-treated mice seven weeks after BMT"}}, "data": [{"smiles": "C[C@@H]1CN(C(=N)N)N=C1c1ccc(F)cc1O", "note": "[AM1476]", "values": [{"measurement": "distribution to the brain", "setting": "[1]", "result": "no preference to distribute to the brain"}, {"measurement": "oral bioavailability", "setting": "[1]", "result": "orally bioavailable"}, {"measurement": "IC50", "setting": "Mouse 5-HT2BR", "result": 11.5, "unit": "nM"}, {"measurement": "antifibrotic effects, comparison of doses", "setting": "[2]; 10 mg/kg bid and 10 mg/kg qd (comparable to each other) vs 1 mg/kg bid", "result": "more pronounced than with 1 mg/kg bid"}, {"measurement": "hydroxyproline content, skin, vs mice killed after three weeks", "setting": "[2]; 10 mg/kg qd", "result": "significant reduction"}, {"measurement": "number of CD45+ leukocytes in skin", "setting": "[2]; all doses", "result": "none of the concentrations of AM1476 reduced"}, {"measurement": "myofibroblast counts vs mice killed three weeks after BMT", "setting": "[2]; all three doses", "result": "significantly lower"}, {"measurement": "tolerability (clinical examination, gross necropsy, histology)", "setting": "[2]; all three doses (1 mg/kg bid, 10 mg/kg qd, 10 mg/kg bid), oral", "result": "well tolerated without obvious signs of toxicity"}, {"measurement": "AAM (alternatively activated M2 macrophage) counts in the skin", "setting": "[2]; all three doses, statistically significant for 10 mg/kg qd and 10 mg/kg bid", "result": "reduction of AAM accumulation"}, {"measurement": "accumulation of hydroxyproline, skin", "setting": "[2]; [3]", "result": "reduced"}, {"measurement": "dermal thickening", "setting": "[2]; [3]", "result": "reduced"}, {"measurement": "myofibroblast differentiation, skin", "setting": "[2]; [3]", "result": "reduced"}]}]}
